Experimental data: paper PMC2913396 (Molecular Systems Biology, 2010)
“Also recorded” adds a separate entry of the source.

What was measured:
[1] = test system: HCV genotype 1b subgenomic replicon in Huh-luc/neo-ET cells; assay: cHTS luciferase assay; format: cell-based, hepatitis C virus; settings: for effect on replicon replication (in words): single agent, 48 h luciferase
[2] = ref Pyrah et al, 2001; Cenedella et al, 2004; cited from earlier work
HMGCR = HMGCR protein expression by western blot; format: cell-based, human; settings: Huh-7 cells, 16 h
Huh-7 cells = assay: host proliferation counterscreen measuring cellular ATP levels; format: cell-based, human; settings: 48 h
[3] = test system: HCV replicon RNA in Huh-luc/neo-ET cells; assay: replicon RNA copy number by quantitative RT-PCR; format: cell-based, hepatitis C virus; settings: 72 h, normalized to total RNA

Row | Compound | effect on replicon replication (in words) [1] | effect on host cell ATP levels (in words) (Huh-7 cells) | also measured
1 | CCC(C)(C)c1ccc(CC(C)CN2C[C@@H](C)O[C@@H](C)C2)cc1 (stereo partly shown) [Amorolfine] | inhibited HCV replication with marginal impact on host cell ATP levels | – | –
2 | CC(C)CCC[C@@H](C)[C@H]1CC(=O)C2=C3CC[C@H]4C[C@@H](O)CC[C@]4(C)[C@H]3CC[C@@]21C [Colestolone] | inhibited HCV replication with marginal impact on host cell ATP levels | – | –
3 | CCN(CC)CCO[C@H]1CC[C@@]2(C)C(=CC[C@@H]3[C@@H]2CC[C@]2(C)C(=O)CC[C@@H]32)C1.Cl [U18666A] | inhibited HCV replication with marginal impact on host cell ATP levels | – | IC50 of HCV replication inhibition (in words) ([1]; 48 h): nM range; side effects [2]: rapid induction of cataracts and irreversible lens damage in animals; HMGCR protein expression (in words) (HMGCR): overexpression of HMGCR
4 | CC(C)N1CCN(c2ccc(OCC3COC(Cn4cncn4)(c4ccc(Cl)cc4Cl)O3)cc2)CC1 (stereo not shown) [Terconazole] | – | reduce host cell ATP levels | –
5 | COC(=O)[C@H](CC(C)C)NC(=O)c1ccc(NC[C@@H](N)CS)cc1-c1ccccc1 [GGTI-286] | antiviral activity | – | –
6 | CC(C)n1c(/C=C/C(O)CC(O)CC(=O)O)c(-c2ccc(F)cc2)c2ccccc21 (stereo not shown) [fluvastatin] | proviral effect | – | –
7 | NCCCC(O)(P(=O)(O)O)P(=O)(O)O [Alendronate] | – | reduce host cell ATP levels | –
8 | CC(C)=CCC/C(C)=C/CC/C(C)=C/CO [Farnesol] | strongly promoted replicon replication | – | –
9 | CCOP(=O)(OCC)C(=Cc1cc(C(C)(C)C)c(O)c(C(C)(C)C)c1)P(=O)(OCC)OCC [SR-12813] | strongly promoted replicon replication | – | –
10 | CCN(CC)CCOc1ccc(C(=C(Cl)c2ccccc2)c2ccccc2)cc1 [Clomiphene] | – | reduce host cell ATP levels | –
11 | CC(Cc1ccc(C(C)(C)C)cc1)CN1C[C@@H](C)O[C@@H](C)C1 (stereo partly shown) [Fenpropimorph] | inhibited HCV replication with marginal impact on host cell ATP levels | – | –
12 | CCC(C)(C)C(=O)O[C@H]1C[C@@H](C)C=C2C=C[C@H](C)[C@H](CC[C@@H]3C[C@@H](O)CC(=O)O3)[C@H]21 [Simvastatin] | proviral effect; also recorded: increased HCV replication | correlate with a reduction in host cell ATP levels | HMGCR protein expression (in words) (HMGCR): apparent overexpression of HMGCR; replicon RNA copy number, RT-qPCR (in words) [3]: proviral effects
13 | C=C(CC[C@]12O[C@H](C(=O)O)[C@@](O)(C(=O)O)[C@](C(=O)O)(O1)[C@H](OC(=O)/C=C/[C@@H](C)C[C@@H](C)CC)[C@H]2O)[C@@H](OC(C)=O)[C@H](C)Cc1ccccc1 [Squalestatin] | strongly promoted replicon replication | – | HMGCR protein expression (in words) (HMGCR): overexpression of HMGCR; replicon RNA copy number, RT-qPCR (in words) [3]: proviral effects
14 | CCCCCCCCCCCCCCOc1ccc(C(=O)O)o1 [TOFA] | – | modest depletion of ATP at most antiviral concentrations | –
